From ChEMBL document CHEMBL1201862, “PubChem BioAssay data set” (2004)
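48-hour exposure; five concentrations; linearly interpolated endpoints. At the GI50, growth is halved.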 Activity calls are given as the source filed them. Rule as the data show it: active = GI50 up to about 1.1 µM and inactive = higher.

What was measured:
Experiment in all cases: NCI-60 cell line screen, 48 h
HCT-116 = tested on: HCT-116
ACHN = tested on: ACHN
SR = tested on: SR
MOLT-4 = tested on: MOLT-4
SF-539 = tested on: SF-539
TK-10 = tested on: TK-10
SF-268 = tested on: SF-268
SK-OV-3 = tested on: SK-OV-3
Malme-3M = tested on: Malme-3M
SW-620 = tested on: SW-620
NCI-H460 = tested on: NCI-H460
UACC-62 = tested on: UACC-62
MDA-N = tested on: MDA-N
DU-145 = tested on: DU-145
SF-295 = tested on: SF-295
LOX IMVI = tested on: LOX IMVI
HCC 2998 = tested on: HCC 2998
SN12C = tested on: SN12C
RPMI-8226 = tested on: RPMI-8226

Measured: GI50

c1ccc2c3c(c(N4CCOCC4)nc2c1)CCCC3
inactive: HCT-116 40.6 µM | ACHN 41.2 µM | SR 46.8 µM | MOLT-4 30 µM | SF-539 20.8 µM | TK-10 63.4 µM | SF-268 66.5 µM | SK-OV-3 86.1 µM | Malme-3M 75.2 µM | SW-620 43.8 µM | NCI-H460 34.7 µM | UACC-62 55.7 µM | MDA-N 50.4 µM | DU-145 33.3 µM | SF-295 39.6 µM | LOX IMVI 39.9 µM | HCC 2998 32.4 µM | SN12C 34.2 µM

COC(=O)[C@@]1(C)CCC[C@]2(C(=O)O)C3Cc4occc4[C@H](C)[C@@H]3CCC21 (stereo partly specified)
inactive: HCT-116 35.2 µM | ACHN 44.2 µM | SR 59.7 µM | MOLT-4 29.2 µM | SF-539 42.9 µM | TK-10 41 µM | SF-268 > 100 µM | SK-OV-3 56.1 µM | Malme-3M 34.5 µM | SW-620 36 µM | NCI-H460 33.8 µM | UACC-62 62.5 µM | MDA-N 75.9 µM | DU-145 44.2 µM | SF-295 33.6 µM | HCC 2998 30.2 µM | SN12C 28.9 µM

O=Cc1ccc2[nH]c(=O)oc2c1
inactive: HCT-116 > 100 µM | ACHN > 100 µM | SR 39.7 µM | MOLT-4 60.4 µM | SF-539 > 100 µM | TK-10 > 100 µM | SF-268 > 100 µM | SK-OV-3 > 100 µM | Malme-3M > 100 µM | SW-620 > 100 µM | NCI-H460 > 100 µM | UACC-62 > 100 µM | MDA-N > 100 µM | DU-145 > 100 µM | SF-295 > 100 µM | LOX IMVI > 100 µM | SN12C > 100 µM | RPMI-8226 > 100 µM

CC(C)(C)/N=c1/n(C(C)(C)C)oc(=O)n1-c1ccccc1
inactive: HCT-116 > 50 µM | ACHN > 50 µM | SR > 50 µM | MOLT-4 > 50 µM | SF-539 > 50 µM | TK-10 > 50 µM | SF-268 > 50 µM | SK-OV-3 > 50 µM | Malme-3M > 50 µM | SW-620 > 50 µM | NCI-H460 > 50 µM | UACC-62 > 50 µM | MDA-N > 50 µM | DU-145 > 50 µM | SF-295 > 50 µM | LOX IMVI > 50 µM | SN12C > 50 µM | RPMI-8226 > 50 µM
